Patent US8802597B2, “Herbicidal pyrimidines” (E I du Pont de Nemours and Company, priority 2003, dated 2014)

What was measured:
Test in all cases: Test C pre/postemergence
Format in all cases: in vivo
[1] = system: johnsongrass (Sorghum halepense); conditions: for Plant response rating (scale of 0 to 100), Johnsongrass / Johnsongrass plant response rating: Postemergence; for Johnsongrass plant response rating: scale 0 to 100 (0 no effect, 100 complete control); for Plant response rating, Johnsongrass: Preemergence
How it was run: (§1)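 Greenhouse herbicide screen, visual readout. Compound in solvent/surfactant applied preemergence at planting or postemergence to 1- to 4-leaf plants; assessed at 12–14 days on a 0–100 control scale.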

soybean (Glycine max) = conditions: for Plant response rating (scale of 0 to 100), Soybean / Soybean plant response rating: Postemergence; for Soybean plant response rating: scale 0 to 100 (0 no effect, 100 complete control); for Plant response rating, Soybean: Preemergence
How it was run: as §1

[2] = system: velvetleaf (Abutilon theophrasti); conditions: for Plant response rating (scale of 0 to 100), Velvetleaf / Velvetleaf plant response rating: Postemergence; for Velvetleaf plant response rating: scale 0 to 100 (0 no effect, 100 complete control); for Plant response rating, Velvetleaf: Preemergence
How it was run: as §1

[3] = system: goosegrass (Eleusine indica); conditions: for Plant response rating (scale of 0 to 100), Goosegrass / Goosegrass plant response rating: Postemergence; for Goosegrass plant response rating: scale 0 to 100 (0 no effect, 100 complete control); for Plant response rating, Goosegrass: Preemergence
How it was run: as §1

[4] = system: bermudagrass (Cynodon dactylon)
How it was run: as §1

[5] = system: common (oilseed) sunflower (Helianthus annuus); conditions: Preemergence
How it was run: as §1

[6] = system: lambsquarters (Chenopodium album); conditions: for Plant response rating (scale of 0 to 100), Lambsquarters / Lambsquarters plant response rating: Postemergence; for Lambsquarters plant response rating: scale 0 to 100 (0 no effect, 100 complete control); for Plant response rating, Lambsquarters: Preemergence
How it was run: as §1

[7] = system: common ragweed (Ambrosia elatior); conditions: for Plant response rating (scale of 0 to 100), Ragweed / Ragweed plant response rating: Postemergence; for Ragweed plant response rating: scale 0 to 100 (0 no effect, 100 complete control); for Plant response rating, Ragweed: Preemergence
How it was run: as §1

kochia (Kochia scoparia) = conditions: for Plant response rating (scale of 0 to 100), Kochia / Kochia plant response rating: Postemergence; for Kochia plant response rating: scale 0 to 100 (0 no effect, 100 complete control); for Plant response rating, Kochia: Preemergence
How it was run: as §1

[8] = system: pigweed (Amaranthus retroflexus); conditions: for Plant response rating (scale of 0 to 100), Pigweed / Pigweed plant response rating: Postemergence; for Pigweed plant response rating: scale 0 to 100 (0 no effect, 100 complete control); for Plant response rating, Pigweed: Preemergence
How it was run: as §1

[9] = system: cocklebur (Xanthium strumarium); conditions: for Plant response rating (scale of 0 to 100), Cocklebur / Cocklebur plant response rating: Postemergence; for Cocklebur plant response rating: scale 0 to 100 (0 no effect, 100 complete control); for Plant response rating, Cocklebur: Preemergence
How it was run: as §1

[10] = system: eastern black nightshade (Solanum ptycanthum); conditions: Preemergence
How it was run: as §1

[11] = 16 g ai/ha, scale 0 to 100, 0 no effect, 100 complete control
[12] = 31 g ai/ha, scale 0 to 100, 0 no effect, 100 complete control
[13] = 62 g ai/ha, scale 0 to 100, 0 no effect, 100 complete control
[14] = Preemergence, 62 g ai/ha, scale 0 to 100, 0 no effect, 100 complete control
[15] = Preemergence, 125 g ai/ha, scale 0 to 100

COCc1nc(C2CC2)nc(N)c1Br [Compound 11]
Plant response rating (scale of 0 to 100), Johnsongrass ([1]; 16 g ai/ha): 0 | Plant response rating (scale of 0 to 100), Johnsongrass ([1]; 31 g ai/ha): 0 | Johnsongrass plant response rating ([1]; 62 g ai/ha): 0 | Johnsongrass plant response rating ([1]; 125 g ai/ha): 0 | Plant response rating, Johnsongrass [1, 11]: 0 | Plant response rating, Johnsongrass [1, 12]: 0 | Plant response rating, Johnsongrass [1, 13]: 0 | Plant response rating, Johnsongrass ([1]; 125 g ai/ha, scale 0 to 100): 75 | Plant response rating (scale of 0 to 100), Soybean (soybean (Glycine max); 16 g ai/ha): 45 | Plant response rating (scale of 0 to 100), Soybean (soybean (Glycine max); 31 g ai/ha): 60 | Soybean plant response rating (soybean (Glycine max); 62 g ai/ha): 80 | Soybean plant response rating (soybean (Glycine max); 125 g ai/ha): 95 | Plant response rating, Soybean (soybean (Glycine max); 125 g ai/ha, scale 0 to 100): 55 | Plant response rating (scale of 0 to 100), Velvetleaf ([2]; 16 g ai/ha): 20 | Plant response rating (scale of 0 to 100), Velvetleaf ([2]; 31 g ai/ha): 50 | Velvetleaf plant response rating ([2]; 62 g ai/ha): 60 | Velvetleaf plant response rating ([2]; 125 g ai/ha): 75 | Plant response rating, Velvetleaf [2, 11]: 0 | Plant response rating, Velvetleaf [2, 12]: 0 | Plant response rating, Velvetleaf [2, 13]: 0 | Plant response rating, Velvetleaf ([2]; 125 g ai/ha, scale 0 to 100): 0 | Plant response rating (scale of 0 to 100), Goosegrass ([3]; 16 g ai/ha): 0 | Plant response rating (scale of 0 to 100), Goosegrass ([3]; 31 g ai/ha): 0 | Goosegrass plant response rating ([3]; 62 g ai/ha): 0 | Goosegrass plant response rating ([3]; 125 g ai/ha): 0 | Plant response rating, Goosegrass [3, 11]: 0 | Plant response rating, Goosegrass [3, 12]: 0 | Plant response rating, Goosegrass [3, 13]: 0 | Plant response rating, Goosegrass ([3]; 125 g ai/ha, scale 0 to 100): 0 | Plant response rating (scale of 0 to 100), Bermudagrass ([4]; Postemergence, 16 g ai/ha): 0 | Plant response rating (scale of 0 to 100), Bermudagrass ([4]; Postemergence, 31 g ai/ha): 0 | Bermudagrass plant response rating ([4]; Postemergence, 62 g ai/ha, scale 0 to 100 (0 no effect, 100 complete control)): 0 | Plant response rating, Bermudagrass ([4]; Postemergence, 125 g ai/ha, scale 0 to 100): 0 | Plant response rating, Bermudagrass ([4]; Preemergence, 16 g ai/ha, scale 0 to 100, 0 no effect, 100 complete control): 0 | Plant response rating, Bermudagrass ([4]; Preemergence, 31 g ai/ha, scale 0 to 100, 0 no effect, 100 complete control): 0 | Plant response rating, Bermudagrass [4, 14]: 0 | Plant response rating, Bermudagrass [4, 15]: 0 | Plant response rating, Sunflower [5, 11]: 0 | Plant response rating, Sunflower [5, 12]: 0 | Plant response rating, Sunflower [5, 13]: 0 | Plant response rating, Sunflower ([5]; 125 g ai/ha, scale 0 to 100): 0 | Plant response rating (scale of 0 to 100), Lambsquarters ([6]; 16 g ai/ha): 50 | Plant response rating (scale of 0 to 100), Lambsquarters ([6]; 31 g ai/ha): 60 | Lambsquarters plant response rating ([6]; 62 g ai/ha): 70 | Lambsquarters plant response rating ([6]; 125 g ai/ha): 80 | Plant response rating, Lambsquarters [6, 11]: 0 | Plant response rating, Lambsquarters [6, 12]: 0 | Plant response rating, Lambsquarters [6, 13]: 40 | Plant response rating, Lambsquarters ([6]; 125 g ai/ha, scale 0 to 100): 85 | Plant response rating (scale of 0 to 100), Ragweed ([7]; 16 g ai/ha): 15 | Plant response rating (scale of 0 to 100), Ragweed ([7]; 31 g ai/ha): 45 | Ragweed plant response rating ([7]; 62 g ai/ha): 65 | Ragweed plant response rating ([7]; 125 g ai/ha): 75 | Plant response rating, Ragweed [7, 11]: 0 | Plant response rating, Ragweed [7, 12]: 0 | Plant response rating, Ragweed [7, 13]: 20 | Plant response rating, Ragweed ([7]; 125 g ai/ha, scale 0 to 100): 45 | Plant response rating (scale of 0 to 100), Kochia (kochia (Kochia scoparia); 16 g ai/ha): 40 | Plant response rating (scale of 0 to 100), Kochia (kochia (Kochia scoparia); 31 g ai/ha): 65 | Kochia plant response rating (kochia (Kochia scoparia); 62 g ai/ha): 75 | Kochia plant response rating (kochia (Kochia scoparia); 125 g ai/ha): 90 | Plant response rating, Kochia (kochia (Kochia scoparia); [11]): 0 | Plant response rating, Kochia (kochia (Kochia scoparia); [12]): 0 | Plant response rating, Kochia (kochia (Kochia scoparia); [13]): 0 | Plant response rating, Kochia (kochia (Kochia scoparia); 125 g ai/ha, scale 0 to 100): 60 | Plant response rating (scale of 0 to 100), Pigweed ([8]; 16 g ai/ha): 60 | Plant response rating (scale of 0 to 100), Pigweed ([8]; 31 g ai/ha): 70 | Pigweed plant response rating ([8]; 62 g ai/ha): 80 | Pigweed plant response rating ([8]; 125 g ai/ha): 90 | Plant response rating, Pigweed [8, 11]: 0 | Plant response rating, Pigweed [8, 12]: 0 | Plant response rating, Pigweed [8, 13]: 65 | Plant response rating, Pigweed ([8]; 125 g ai/ha, scale 0 to 100): 90 | Plant response rating (scale of 0 to 100), Cocklebur ([9]; 16 g ai/ha): 0 | Plant response rating (scale of 0 to 100), Cocklebur ([9]; 31 g ai/ha): 0 | Cocklebur plant response rating ([9]; 62 g ai/ha): 25 | Cocklebur plant response rating ([9]; 125 g ai/ha): 40 | Plant response rating, Cocklebur [9, 11]: 0 | Plant response rating, Cocklebur [9, 12]: 0 | Plant response rating, Cocklebur [9, 13]: 0 | Plant response rating, Cocklebur ([9]; 125 g ai/ha, scale 0 to 100): 0

CCOC(=O)c1nc(C2CC2)nc(N=CN(C)C)c1Br [Compound 40]
Plant response rating, Johnsongrass [1, 13]: 0 | Plant response rating, Johnsongrass ([1]; 125 g ai/ha, scale 0 to 100): 80 | Plant response rating, Johnsongrass ([1]; 250 g ai/ha, scale 0 to 100): 80 | Plant response rating, Johnsongrass ([1]; 500 g ai/ha, scale 0 to 100): 95 | Plant response rating, Nightshade [10, 13]: 100 | Plant response rating, Nightshade ([10]; 125 g ai/ha, scale 0 to 100): 100 | Plant response rating, Nightshade ([10]; 250 g ai/ha, scale 0 to 100): 100 | Plant response rating, Nightshade ([10]; 500 g ai/ha, scale 0 to 100): 100 | Plant response rating, Soybean (soybean (Glycine max); [13]): 10 | Plant response rating, Soybean (soybean (Glycine max); 125 g ai/ha, scale 0 to 100): 40 | Plant response rating, Soybean (soybean (Glycine max); 250 g ai/ha, scale 0 to 100): 90 | Plant response rating, Soybean (soybean (Glycine max); 500 g ai/ha, scale 0 to 100): 95 | Plant response rating, Velvetleaf [2, 13]: 0 | Plant response rating, Velvetleaf ([2]; 125 g ai/ha, scale 0 to 100): 70 | Plant response rating, Velvetleaf ([2]; 250 g ai/ha, scale 0 to 100): 90 | Plant response rating, Velvetleaf ([2]; 500 g ai/ha, scale 0 to 100): 100 | Plant response rating, Goosegrass [3, 13]: 0 | Plant response rating, Goosegrass ([3]; 125 g ai/ha, scale 0 to 100): 0 | Plant response rating, Goosegrass ([3]; 250 g ai/ha, scale 0 to 100): 5 | Plant response rating, Goosegrass ([3]; 500 g ai/ha, scale 0 to 100): 40 | Plant response rating, Bermudagrass [4, 14]: 0 | Plant response rating, Bermudagrass [4, 15]: 0 | Plant response rating, Bermudagrass ([4]; Preemergence, 250 g ai/ha, scale 0 to 100): 0 | Plant response rating, Bermudagrass ([4]; Preemergence, 500 g ai/ha, scale 0 to 100): 70 | Plant response rating, Sunflower [5, 13]: 5 | Plant response rating, Sunflower ([5]; 125 g ai/ha, scale 0 to 100): 90 | Plant response rating, Sunflower ([5]; 250 g ai/ha, scale 0 to 100): 90 | Plant response rating, Sunflower ([5]; 500 g ai/ha, scale 0 to 100): 95 | Plant response rating, Lambsquarters [6, 13]: 100 | Plant response rating, Lambsquarters ([6]; 125 g ai/ha, scale 0 to 100): 100 | Plant response rating, Lambsquarters ([6]; 250 g ai/ha, scale 0 to 100): 100 | Plant response rating, Lambsquarters ([6]; 500 g ai/ha, scale 0 to 100): 100 | Plant response rating, Ragweed [7, 13]: 90 | Plant response rating, Ragweed ([7]; 125 g ai/ha, scale 0 to 100): 90 | Plant response rating, Ragweed ([7]; 250 g ai/ha, scale 0 to 100): 100 | Plant response rating, Ragweed ([7]; 500 g ai/ha, scale 0 to 100): 100 | Plant response rating, Pigweed [8, 13]: 20 | Plant response rating, Pigweed ([8]; 125 g ai/ha, scale 0 to 100): 100 | Plant response rating, Pigweed ([8]; 250 g ai/ha, scale 0 to 100): 100 | Plant response rating, Pigweed ([8]; 500 g ai/ha, scale 0 to 100): 100 | Plant response rating, Cocklebur [9, 13]: 5 | Plant response rating, Cocklebur ([9]; 125 g ai/ha, scale 0 to 100): 70 | Plant response rating, Cocklebur ([9]; 250 g ai/ha, scale 0 to 100): 90 | Plant response rating, Cocklebur ([9]; 500 g ai/ha, scale 0 to 100): 100
